Where two headings read alike, the source gives them in different places.
Tests used:
[1] = tested on: Carrageenin-induced paw edema; assay: Carrageenin-induced paw edema in rats [Test 2]; format: in vivo, SD-strain male rats; settings: for ED30: Rattus norvegicus, iv, read-out: ED30 (dose required to cause a 30% inhibition of edema volume)
Description: (a) Experimental animals: SD-strain male rats (120-180 g).
A micro-emulsion containing ethyl 4-biphenylylacetate prepared as in Examples 11, 12, 13 and 14 given hereinafter was administered at a dose of 5 ml per kg of the animals. Venolipid® (Morishita Pharmaceutical Co., Ltd.) was used as a vehicle control. As control drugs, a solution or suspension of ethyl 4-biphenylylacetate in physiological saline containing 0.5% Cremophor EL® (Sigma Chemical Company, a solubilizing agent), 0.2% of polyethylene glycol 400 and 10% of dimethyl sulfoxide, a physiological saline solution of sodium 4-biphenylylacetate and a physiological saline solution of Aspirin DL-lysine [Venopirin®, Green Cross Co.] were used. As the vehicle control of the control drugs, the above solvents were used.
A 1% carrageenin solution in physiological saline was injected subcutaneously in an amount of 0.05 ml into the planter surface of the left hind paw of each rat via a 25 gauge needle fitted to a 0.25 ml syringe. One hour after carrageenin injection, the rats were randomized on the basis of the edema volume, and intravenous administration of the drugs and vehicles followed immediately. The volume of the left hind paw was measured by a plethysmometer (Ugo Basile) prior to the injection of the carrageenin solution and at 2, 3, 4, 5 and 6 hours after the carrageenin injection. As the volume of edema, an increase in the paw volume was taken.
The inhibition percents were calculated in accordance with the same calculation formula as in Test 1.

[2] = tested on: Adjuvant-induced polyarthritis; assay: Adjuvant-induced polyarthritis in rats, adjuvant-injected paw [Test 2]; format: in vivo, SD-strain female rats; settings: for ED20: Rattus norvegicus, iv, read-out: ED20 (dose required to cause a 20% inhibition of adjuvant-injected paw volume)
Description: (a) Experimental animals: SD-strain famale rats 140-180g).
(§1) (b) Test drugs: The same as in A-1 [Test 2].
Rats were anesthetized with ether inhalation, and 0.6 mg of Mycobacterium butyricum suspended in 0.1 ml of white paraffin oil was immediately injected intradermally into the planter surface of the left hind paw of each rat via a 27 gauge needle fitted to a 0.5 ml syringe (day 0). On the 14th day after the adjuvant injection, arthritis-established rats selected by development of secondary lesions were used. Volumes of both hind paws in arthritis-established rats were measured by a plethysmometer (UGO BASILE), and the rats were randomized on the basis of the edema volume in the adjuvant-injected paw. Once daily, beginning on the 14th day up to the 18th day, drugs and vehicles were administered intravenously. Measurements of both paw volumes were performed every day from the 15th day up to the 18th day, and on the 21st day and the 24th day. The inhibition percent were calculated in accordance with the calculation formula as in [Test 1] of A-1.

[3] = tested on: brewer's yeast-induced fever; assay: Effects on body temperature in pyretic rats (antipyretic activity); format: in vivo, SD-strain male rats; settings: iv, read-out: ED50 (dose reducing body temperature by at least 1.5° C. in 50% of the rats)
Description: (a) Experimental animals SD-strain male rats (120-185 g).
as §1
Male Sprague-Dawley rats, weighing 120-185 g, were injected subcutaneously in the nape of the neck with 2 ml of a 20% suspension of dried brewers yeast in physiological saline. Drugs and vehicles were administered intravenously 17 hours after treatment of yeast suspension. Rectal temperature was recorded with a thermistor type thermometer (Natsume Seisakusho, BMA-77 Type) just prior to drug administration and at 1/2, 1, 2 and 4 hours after drug administration.

[4] = rat, in vivo
Description: (a) Experimental animals: Wistar-strain male rats (body weight 60-220 g), 6 per group.
The rats were periodically killed, and the major organs were extracted. The concentration of the drug in the tissues were measured by the conventional HPLC method.

[5] = in vivo, po; cited from earlier work
[6] = tested on: synthesis of prostaglandin; settings: E. L. Tolman, American Cyanamid Company's report; cited from earlier work
[7] = tested on: abnormal 3-legged gait (brewers yeast-inflamed paw); assay: Reversal of abnormal 3-legged gait in rats (analgesic activity); format: in vivo, SD-strain male rats; settings: Rattus norvegicus, iv, read-out: ED50 (dose causing at least 50% reversal of gait score in 50% of the rats)
Description: (a) Experimental animals: SD-strain male rats (120-165 g).
as §1
A 40% suspension of dried brewers yeast in physiological saline was injected (0.25 ml/rat) subcutaneously into the planter surface of the left hind paw of each rat. Three hours later, the walking gait on a wire mesh platform was assessed for each rat.
0 = Normal gait in the presence of a severely
0.5 = As above, with intermittent mild limping.
1.0 = Constant limping, but continuous use of
1.5 = Limping with occasional 3-legged gait
2.0 = Continous 3-Legged gait and/or only the
Any rat not showing a gait score of 2 was eliminated from this test. Drugs and vehicles were then administered intravenously. Measurements of the gait were made at 1, 2, 3 and 4 hours after drug administration.

With `CCOC(=O)Cc1ccc(-c2ccccc2)cc1` [Ethyl 4-biphenylylacetate] the “Inhibition (%)” value ([1]; 1.25 mg/kg i.v. as 4-biphenylylacetic acid, 2 h after carrageenin) was 14.0%, the “Inhibition (%)” value ([1]; 1.25 mg/kg i.v. as 4-biphenylylacetic acid, 3 h after carrageenin) was 17.5% and the “Inhibition (%)” value ([1]; 1.25 mg/kg i.v. as 4-biphenylylacetic acid, 4 h after carrageenin) was 9.6%. The “Inhibition (%)” value ([1]; 1.25 mg/kg i.v. as 4-biphenylylacetic acid, 5 h after carrageenin) was 9.8%, the “Inhibition (%)” value ([1]; 1.25 mg/kg i.v. as 4-biphenylylacetic acid, 6 h after carrageenin) was 6.4% and the “Inhibition (%)” value ([1]; 2.5 mg/kg i.v. as 4-biphenylylacetic acid, 2 h after carrageenin) was 19.3%. For the same compound, the “Inhibition (%)” value ([1]; 2.5 mg/kg i.v. as 4-biphenylylacetic acid, 3 h after carrageenin) was 26.3%, the “Inhibition (%)” value ([1]; 2.5 mg/kg i.v. as 4-biphenylylacetic acid, 4 h after carrageenin) was 17.3% and the “Inhibition (%)” value ([1]; 2.5 mg/kg i.v. as 4-biphenylylacetic acid, 5 h after carrageenin) was 17.6%. For the same compound, the “Inhibition (%)” value ([1]; 2.5 mg/kg i.v. as 4-biphenylylacetic acid, 6 h after carrageenin) was 12.8%, the “Inhibition (%)” value ([1]; 5.0 mg/kg i.v. as 4-biphenylylacetic acid, 2 h after carrageenin) was 17.5% and the “Inhibition (%)” value ([1]; 5.0 mg/kg i.v. as 4-biphenylylacetic acid, 3 h after carrageenin) was 28.1%. For the same compound, the “Inhibition (%)” value ([1]; 5.0 mg/kg i.v. as 4-biphenylylacetic acid, 4 h after carrageenin) was 23.1%, the “Inhibition (%)” value ([1]; 5.0 mg/kg i.v. as 4-biphenylylacetic acid, 5 h after carrageenin) was 23.5% and the “Inhibition (%)” value ([1]; 5.0 mg/kg i.v. as 4-biphenylylacetic acid, 6 h after carrageenin) was 19.1%. For the same compound, the “Inhibition (%)” value ([1]; 10.0 mg/kg i.v. as 4-biphenylylacetic acid, 2 h after carrageenin) was 22.8%, the “Inhibition (%)” value ([1]; 10.0 mg/kg i.v. as 4-biphenylylacetic acid, 3 h after carrageenin) was 22.8% and the “Inhibition (%)” value ([1]; 10.0 mg/kg i.v. as 4-biphenylylacetic acid, 4 h after carrageenin) was 26.9%. For the same compound, the “Inhibition (%)” value ([1]; 10.0 mg/kg i.v. as 4-biphenylylacetic acid, 5 h after carrageenin) was 25.5%, the “Inhibition (%)” value ([1]; 10.0 mg/kg i.v. as 4-biphenylylacetic acid, 6 h after carrageenin) was 27.7% and the ED30 [1] was 15.8 mg/kg. For the same compound, the “Inhibition (%)” value ([2]; 1.25 mg/kg/day i.v. as 4-biphenylylacetic acid, day 15) was -8.0%, the “Inhibition (%)” value ([2]; 1.25 mg/kg/day i.v. as 4-biphenylylacetic acid, day 16) was -5.1% and the “Inhibition (%)” value ([2]; 1.25 mg/kg/day i.v. as 4-biphenylylacetic acid, day 17) was -3.3%. The “Inhibition (%)” value ([2]; 1.25 mg/kg/day i.v. as 4-biphenylylacetic acid, day 18) was -4.6%, the “Inhibition (%)” value ([2]; 1.25 mg/kg/day i.v. as 4-biphenylylacetic acid, day 21) was -19.2% and the “Inhibition (%)” value ([2]; 1.25 mg/kg/day i.v. as 4-biphenylylacetic acid, day 24) was -23.2%. For the same compound, the “Inhibition (%)” value ([2]; 2.5 mg/kg/day i.v. as 4-biphenylylacetic acid, day 15) was -3.7%, the “Inhibition (%)” value ([2]; 2.5 mg/kg/day i.v. as 4-biphenylylacetic acid, day 16) was 0% and the “Inhibition (%)” value ([2]; 2.5 mg/kg/day i.v. as 4-biphenylylacetic acid, day 17) was 6.7%. The “Inhibition (%)” value ([2]; 2.5 mg/kg/day i.v. as 4-biphenylylacetic acid, day 18) was 5.8%, the “Inhibition (%)” value ([2]; 2.5 mg/kg/day i.v. as 4-biphenylylacetic acid, day 21) was -6.5% and the “Inhibition (%)” value ([2]; 2.5 mg/kg/day i.v. as 4-biphenylylacetic acid, day 24) was -17.5%. The “Inhibition (%)” value ([2]; 5.0 mg/kg/day i.v. as 4-biphenylylacetic acid, day 15) was 5.6%, the “Inhibition (%)” value ([2]; 5.0 mg/kg/day i.v. as 4-biphenylylacetic acid, day 16) was 7.2% and the “Inhibition (%)” value ([2]; 5.0 mg/kg/day i.v. as 4-biphenylylacetic acid, day 17) was 15.5%. The “Inhibition (%)” value ([2]; 5.0 mg/kg/day i.v. as 4-biphenylylacetic acid, day 18) was 15.0%, the “Inhibition (%)” value ([2]; 5.0 mg/kg/day i.v. as 4-biphenylylacetic acid, day 21) was 8.9% and the “Inhibition (%)” value ([2]; 5.0 mg/kg/day i.v. as 4-biphenylylacetic acid, day 24) was 1.3%. The “Inhibition (%)” value ([2]; 10.0 mg/kg/day i.v. as 4-biphenylylacetic acid, day 15) was 2.8%, the “Inhibition (%)” value ([2]; 10.0 mg/kg/day i.v. as 4-biphenylylacetic acid, day 16) was 10.7% and the “Inhibition (%)” value ([2]; 10.0 mg/kg/day i.v. as 4-biphenylylacetic acid, day 17) was 15.2%. The “Inhibition (%)” value ([2]; 10.0 mg/kg/day i.v. as 4-biphenylylacetic acid, day 18) was 15.6%, the “Inhibition (%)” value ([2]; 10.0 mg/kg/day i.v. as 4-biphenylylacetic acid, day 21) was 3.0% and the “Inhibition (%)” value ([2]; 10.0 mg/kg/day i.v. as 4-biphenylylacetic acid, day 24) was -9.8%. The ED20 [2] was 14.5 mg/kg, the ED50 ([3]; 17 hours after yeast, against vehicle control) was 3.1 mg/kg and the “Transferability to the tissues” value [4] was “showed the same transferability to the tissues”.
In the case of `O=C(O)CCC(=O)c1ccc(-c2ccccc2)cc1` [Fenbufen, 4-(4-biphenyl)-4-oxobutyric acid], the “Side effects on the digestive organs” value [5] is listed as “considerably reduced as compared with conventional non-steroidal anti-inflammatory agents”.
In the case of `O=C(O)Cc1ccc(-c2ccccc2)cc1` [4-biphenylylacetic acid, 4-Biphenylylacetic acid], the “IC50, inhibition of synthesis of prostaglandin” value [6] is given as 0.68 ng/mL.
With `CC(=O)Oc1ccccc1C(=O)O` (racemic) [Aspirin-DL.Lysine] the “Inhibition (%)” value ([1]; 50 mg/kg i.v. as aspirin, 2 h after carrageenin) was 24.2%, the “Inhibition (%)” value ([1]; 50 mg/kg i.v. as aspirin, 3 h after carrageenin) was 26.7% and the “Inhibition (%)” value ([1]; 50 mg/kg i.v. as aspirin, 4 h after carrageenin) was 35.7%. For the same compound, the “Inhibition (%)” value ([1]; 50 mg/kg i.v. as aspirin, 5 h after carrageenin) was 29.6%, the “Inhibition (%)” value ([1]; 50 mg/kg i.v. as aspirin, 6 h after carrageenin) was 30.0% and the “Inhibition (%)” value ([1]; 100 mg/kg i.v. as aspirin, 2 h after carrageenin) was 24.2%. The “Inhibition (%)” value ([1]; 100 mg/kg i.v. as aspirin, 3 h after carrageenin) was 26.7%, the “Inhibition (%)” value ([1]; 100 mg/kg i.v. as aspirin, 4 h after carrageenin) was 26.8% and the “Inhibition (%)” value ([1]; 100 mg/kg i.v. as aspirin, 5 h after carrageenin) was 22.2%. For the same compound, the “Inhibition (%)” value ([1]; 100 mg/kg i.v. as aspirin, 6 h after carrageenin) was 20.0%, the “Inhibition (%)” value ([1]; 200 mg/kg i.v. as aspirin, 2 h after carrageenin) was 37.9% and the “Inhibition (%)” value ([1]; 200 mg/kg i.v. as aspirin, 3 h after carrageenin) was 43.3%. The “Inhibition (%)” value ([1]; 200 mg/kg i.v. as aspirin, 4 h after carrageenin) was 50.0%, the “Inhibition (%)” value ([1]; 200 mg/kg i.v. as aspirin, 5 h after carrageenin) was 42.6% and the “Inhibition (%)” value ([1]; 200 mg/kg i.v. as aspirin, 6 h after carrageenin) was 44.0%. The ED30 [1] was 81.6 mg/kg, the “Inhibition (%)” value ([2]; 50 mg/kg/day i.v. as aspirin, day 15) was -2.7% and the “Inhibition (%)” value ([2]; 50 mg/kg/day i.v. as aspirin, day 16) was -5.2%. The “Inhibition (%)” value ([2]; 50 mg/kg/day i.v. as aspirin, day 17) was -3.8%, the “Inhibition (%)” value ([2]; 50 mg/kg/day i.v. as aspirin, day 18) was -2.6% and the “Inhibition (%)” value ([2]; 50 mg/kg/day i.v. as aspirin, day 21) was -12.4%. For the same compound, the “Inhibition (%)” value ([2]; 50 mg/kg/day i.v. as aspirin, day 24) was -20.0%, the “Inhibition (%)” value ([2]; 100 mg/kg/day i.v. as aspirin, day 15) was 4.0% and the “Inhibition (%)” value ([2]; 100 mg/kg/day i.v. as aspirin, day 16) was 9.2%. For the same compound, the “Inhibition (%)” value ([2]; 100 mg/kg/day i.v. as aspirin, day 17) was 13.2%, the “Inhibition (%)” value ([2]; 100 mg/kg/day i.v. as aspirin, day 18) was 6.8% and the “Inhibition (%)” value ([2]; 100 mg/kg/day i.v. as aspirin, day 21) was 4.2%. The “Inhibition (%)” value ([2]; 100 mg/kg/day i.v. as aspirin, day 24) was -2.8%, the “Inhibition (%)” value ([2]; 200 mg/kg/day i.v. as aspirin, day 15) was 6.7% and the “Inhibition (%)” value ([2]; 200 mg/kg/day i.v. as aspirin, day 16) was 11.3%. For the same compound, the “Inhibition (%)” value ([2]; 200 mg/kg/day i.v. as aspirin, day 17) was 16.4%, the “Inhibition (%)” value ([2]; 200 mg/kg/day i.v. as aspirin, day 18) was 15.3% and the “Inhibition (%)” value ([2]; 200 mg/kg/day i.v. as aspirin, day 21) was 7.2%. For the same compound, the “Inhibition (%)” value ([2]; 200 mg/kg/day i.v. as aspirin, day 24) was 6.2%, the ED20 [2] was 320 mg/kg and the ED50 [7] was 93.2 mg/kg. The ED50 ([3]; 17 h) was 76.3 mg/kg.
